Measurements taken from PMC3565751, “The Feasibility of Enzyme Targeted Activation for Amino Acid/Dipeptide Monoester Prodrugs of Floxuridine; Cathepsin D as a Potential Targeted Enzym” (Molecules, 2012).

Columns and labels:
[1] = test system: Capan-2 cell homogenates and cytosolic enzyme extracts; test: Prodrug stability in cytosolic enzyme extract versus whole cell homogenate of Capan-2 cells; assay type: in vitro ADME
Protocol: In stability studies of test compounds in cell homogenates, the location of enzymes in living cells is not considered and the inaccessible enzymes in vivo condition may be able to degrade those analytes in this in vitro setting. Therefore, the result of prodrug stabilities in cell homogenate may be different to one in vivo, where all enzymes are arranged in all specific locations. The experiments of prodrug activation concerning the location of enzymes in cells were performed at 37 °C in Capan-2 cell homogenates and in cytosolic enzyme extracts. For the comparison purpose, the same experiments were performed at 37 °C in Caco-2 cell homogenates and in cytosolic enzyme extracts. […] The difference between them was minimal (1.4- to 2.5 fold). […] In Capan-2 cells, the stabilities of 5′-O-L-phenylalanyl-L-glycylfloxuridine and 5′-O-L-phenylalanylfloxuridine were improved 7.4- and 7.3-fold, while the ones of 5′-O-L- phenylalanyl-L-tyrosylfloxuridine and 5′-O-L-glycyl-L-leucylfloxuridine were declined 3.9- and 6.0-fold, respectively.
(§1) Preparation of Cytosolic Enzyme Extract. Confluent Caco-2 cells and Capan-2 cells (2 plates; 150 mm × 25 mm plate) were rinsed with saline twice. The cells were washed off with 1 mL of pH 7.4 phosphate buffer (10 mmol/L) and the enzymes were extracted through 30 gauge needle 10 times in ice-cold bath. Cell suspension was spun at 10,000 × g for 2 h at 4 °C and the supernatant was spun at 39,000 × g for 2 h at 4 °C. Protein amount was quantified with the Bio-Rad (Hercules, CA, USA) DC Protein Assay using bovine serum albumin as a standard. The protein amount was adjusted to 500 µg/mL and the hydrolysis reactions were carried out in 96-well plates (Corning). Caco-2 cells and Capan-2 cell suspensions (250 µL) were placed in triplicate wells either presence or absence of various inhibitors, the reactions were started with the addition of substrate (200 µM), and wells were incubated at 37 °C for 120 min (time points; 0, 5, 10, 30, 60, and 120 min). At each time point, aliquot sample (35 µL) was removed and added to 150 µL of acetonitrile (ACN) with 0.1% TFA to prevent the further degradation. The mixtures were filtered with a 0.45 µm filters at 1,000 × g for 10 min at 4 °C. The filtrate wasthen analyzed via reverse-phaseHPLC.
(§2) The initial rates of hydrolysis were used to obtain the apparent first-order rate constants and estimate the half-lives. The apparent first-order degradation rate constants of various floxuridine prodrugs at 37 °C were determined by plotting the logarithm of prodrug remaining as a function of time. The slopes of these plots are related to the rate constant, k, and given by:
(§3) The concentrations of prodrugs and their metabolites were determined on a Waters HPLC system (Waters, Inc., Milford, MA, USA). The HPLC system consisted of two Waters pumps (model 515), a Waters autosampler (WISP model 712), and a Waters UV detector (996 photodiode array detector). The system was controlled by Waters Millennium 32 software (version 3.0.1). Samples were injected onto a Waters Xterra C18 reverse-phase column (5 µm, 4.6 × 250 mm) equipped with a guard column. The compounds were eluted using gradient method. All prodrugs were run with the solvent B gradient changing 0% to 56% at a rate of 2%/min during a 28-min run. Standard curves generated for each prodrug and their parent drugs were used for quantitation of integrated area under peaks.

Capan-2 cell homogenate = test: Prodrug hydrolysis in Capan-2 cell homogenate with the presence and the absence of selective enzyme inhibitors; assay type: in vitro ADME; conditions: for Half Life, DPP 3 Inhibitor: Capan-2 cell homogenate with 1,10-phenanthroline; for Half Life, DPP 3 Inhibitor / Half Life, TPP 2 Inhibitor / Half Life, Cathepsin D Inhibitor / Half Life, Aminopeptidase Inhibitor / Half Life, Capan-2 Cell Homogenate: 37 °C; for Half Life, DPP 3 Inhibitor / Half Life, TPP 2 Inhibitor / Half Life, Cathepsin D Inhibitor / Half Life, Aminopeptidase Inhibitor: pH 7.4; for Half Life, TPP 2 Inhibitor: Capan-2 cell homogenate with H-Ala-Ala-Phe-CMK CF3CO2H; for Half Life, Cathepsin D Inhibitor: Capan-2 cell homogenate with pepstatin A; for Half Life, Aminopeptidase Inhibitor: Capan-2 cell homogenate with puromycin; for Half Life, Capan-2 Cell Homogenate: no inhibitor, pH 7.4 phosphate buffer, 200 µM substrate, mean ± s.d.
Protocol: Hydrolysis StudiesPreparation of Capan-2 cell homogenates. Preparation of cell homogenates has been reported previously. Confluent Capan-2 cells (2 plates; 150 mm × 25 mm plate) were rinsed with saline twice. The cells were washed off with 5 mL of pH 7.4 phosphate buffer (10 mmol/L) and the lysed cells by ultrasonication (Micro ultrasonic cell disrupter Model KT40, Kontes, Vineland, NJ, USA) were spun down by centrifugation.
as §1, §2
k = 2.303 × slope (log C vs. time) (1)
The degradation half-lives were then estimated by the equation: […]
as §3

[2] = set-up: method as in PMID 18719516; conditions: pH 7.4 phosphate buffer; mean ± s.d.; ref [50]; cited from earlier work
Capan-2 cell lines = test: Cell proliferation (XTT) assay; assay type: cell-based; conditions: 4 mmol/L, 4 h drug treatment
Protocol: The percentage of growth inhibition for amino acid/dipeptide monoester prodrugs of floxuridine in Capan-2 cell was evaluated via 2,3-bis[2-methoxy-4-nitro-5-sulfophenyl]-2H-tetrazolium-5-carboxanilideinner salt (XTT) assays (Figure 3). The growth inhibitory effect of tested floxuridine prodrugs after 4 h drug treatment range from 0.0–91.1% at 4 h, 0.0–84.2% at 8 h, and 41.8–84.8% at 24 h in Capan-2 cell lines. […] While specific activation enzymes for 5′-O-L-leucyl-L-glycylfloxuridine and 5′-O-L-phenylalanylfloxuridine have not been identified, those enzymes may be highly localized at the plasma membrane and cytosol. Thus, the activation of those prodrugs took place immediately after translocation of prodrugs into the cells and started inhibiting tumor growth. Leucine and phenylalanine are reportedly good substrates for aminopeptidases and carboxylesterase, respectively.
Cell proliferation studies were conducted with Capan-2 cell lines. The cells were seeded into 96-well plates at […] per well and allowed to attach/grow for 24 h before drug solutions were added. The culture medium (RPMI-1640 + 10% fetal bovine serum) was removed and the cells were gently washed once with sterile pH 6.0 uptake buffer (145 mM NaCl, 0.5 mM MgCl2, 1 mM NaH2PO4, 1 mM CaCl2, 3 mM KCl, 5 mM glucose, and 5 mM MES). Floxuridine prodrugs and floxuridine were diluted in pH 6.0 uptake buffer to 4 mmol/L using no drug as a 100% viability control. The wash buffer was removed and 25 µL drug solution per well were added and incubated at 37 °C for 4 h in the cell incubator. After this time, the drug solutions were removed and the cells were again gently washed twice with sterile uptake buffer. RPMI-1640 was then added to each well after washing. The cells were allowed to recover for 4 h, 8 h, or 24 h before evaluating cell viability via 2,3-bis[2-methoxy-4-nitro-5-sulfophenyl]-2H-tetrazolium-5-carboxanilide inner salt (XTT) assays. […] Absorbance readings at 450 nm were recorded.

human cathepsin B = target: T1, human cathepsin B (Homo sapiens, UniProt P07858); test: Prodrug stability with human cathepsin B; assay type: biochemical; conditions: pH 7.4 phosphate buffer, 37 °C, 200 µM substrate
T1 construct: cathepsin B (human liver), and cathepsin D (human liver) were obtained from Sigma Chemical Co; purchased Sigma Chemical Co (St. Louis, MO, USA); host or cells: human liver (tissue-derived)
Description: (§4) The high expression levels of cathepsins in tumors have been reported. It has been investigated if the protein levels of cathepsin B and D would associate with pathological parameters in order to assess the difference in protein levels of cathepsins as possible tumor biomarkers. Cathepsin B, one of the highest gene expressions in enzymes of Capan-2 cell, is a cysteine endopeptidase and reportedly has similar activity to carboxypeptidase and peptidyl-dipeptidase. On the other hand, cathepsin D has been reported that it preferentially hydrolyzes the peptide bond of bulky hydrophobic amino acids and the peptide bond between Phe-Phe of Bz-Arg-Gly-Phe-Phe-Pro-4MbNA [75, 76, 77]. The metabolic stability of floxuridine prodrugs was assessed using human cathepsin B and D in pH 7.4 phosphate buffer. […] However, the enzyme specificity between cathepsin B and D in prodrug activation for those two prodrugs was not observed.
(§5) Prodrug stability with Cathepsin B and D. Lyophilized enzyme powder was dissolved and adjusted to 2.5 mg/mL of pure enzyme, human cathepsin B and D. The hydrolysis reactions were immediately started by adding substrates (200 µM) in 96-well plates (Corning). The reactions were carried out at 37 °C for 120 min (time points; 0, 5, 10, 30, 60, and 120 min). At each time point, aliquot sample (35 µL) was removed and added to 150 µL of acetonitrile (ACN) with 0.1% TFA. The mixtures were filtered with a 0.45 µm filters at 1,000 × g for 10 min at 4 °C. The filtrate was then analyzed via reverse-phase HPLC.
as §2, with “The slopes of these plots are related to the rate constant, k, and given by:” left out
(§6) The concentrations of prodrugs and their metabolites were determined on a Waters HPLC system (Waters, Inc., Milford, MA, USA). […] Standard curves generated for each prodrug and their parent drugs were used for quantitation of integrated area under peaks.

human cathepsin D = target: T2, human cathepsin D (Homo sapiens, UniProt P07339); test: Prodrug stability with human cathepsin D; assay type: biochemical; conditions: pH 7.4 phosphate buffer, 37 °C, 200 µM substrate
T2 construct: cathepsin B (human liver), and cathepsin D (human liver) were obtained from Sigma Chemical Co; purchased Sigma Chemical Co (St. Louis, MO, USA); host or cells: human liver (tissue-derived)
T2 sequence (P07339 169-412 limits assumed): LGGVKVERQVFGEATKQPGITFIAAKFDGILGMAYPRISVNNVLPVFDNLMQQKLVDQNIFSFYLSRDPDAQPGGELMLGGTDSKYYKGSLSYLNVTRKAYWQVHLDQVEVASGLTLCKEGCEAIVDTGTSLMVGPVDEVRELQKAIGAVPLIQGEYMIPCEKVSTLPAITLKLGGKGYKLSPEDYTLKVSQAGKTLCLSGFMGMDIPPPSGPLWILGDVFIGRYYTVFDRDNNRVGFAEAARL
T2 sequence (P07339 65-162 limits assumed): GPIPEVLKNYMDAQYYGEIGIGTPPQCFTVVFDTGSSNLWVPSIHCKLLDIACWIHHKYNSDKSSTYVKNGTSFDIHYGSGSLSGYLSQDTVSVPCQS
Description: as §4, §5
as §2, with “The slopes of these plots are related to the rate constant, k, and given by:” left out
as §6

Row | Structure (SMILES) | Hydrolysis products detected in cell homogenates and cytosolic enzyme extracts [1] | Change of stability in all conditions (with and without enzyme inhibitors) (Capan-2 cell homogenate; Capan-2 cell homogenate) | Hydrolysis products observed (Capan-2 cell homogenate; Capan-2 cell homogenate) | Half Life, Phosphate Buffer pH 7.4 [2] [min] | Onset of growth inhibition of tumor cells (Capan-2 cell lines) | Half Life, DPP 3 Inhibitor (Capan-2 cell homogenate) [min] | Half Life, TPP 2 Inhibitor (Capan-2 cell homogenate) [min] | Half Life, Cathepsin D Inhibitor (Capan-2 cell homogenate) [min] | Half Life, Aminopeptidase Inhibitor (Capan-2 cell homogenate) [min] | Half Life, Capan-2 Cell Homogenate (Capan-2 cell homogenate) [min] | Fold decline of stability in cytosolic extract versus Capan-2 cell homogenate ([1]; 37 °C, pH 7.4 phosphate buffer) [fold] | Stability (degradation) against cathepsin B compared with absence of enzyme (human cathepsin B) | Stability (degradation) against cathepsin D compared with absence of enzyme (human cathepsin D) | Change of half life with the presence of pepstatin A (Capan-2 cell homogenate; Capan-2 cell homogenate) | Change of half lives with other enzyme inhibitors (not pepstatin A) (Capan-2 cell homogenate; Capan-2 cell homogenate) | Fold longer half life (stability improved) in cytosolic extract than in Capan-2 cell homogenate ([1]; 37 °C, pH 7.4 phosphate buffer) [fold]
1 | CC(C)C[C@H](NC(=O)CN)C(=O)OC[C@H]1O[C@@H](n2cc(F)c(=O)[nH]c2=O)C[C@@H]1O [5'-O-L-glycyl-L-leucylfloxuridine] | Floxuridine and amino acid mono ester prodrugs of floxuridine were observed | no change in its stability in all conditions | Amino acid monoester prodrugs of floxuridine and their parent drug were observed |  |  |  |  |  |  |  |  |  |  |  |  | 
2 | CC(C)C[C@H](N)C(=O)NCC(=O)OC[C@H]1O[C@@H](n2cc(F)c(=O)[nH]c2=O)C[C@@H]1O [5'-O-L-leucyl-L-glycylfloxuridine] | only floxuridine was detected |  |  | 23.1 ± 4.1 | immediately inhibited the growth of tumor cells | 32.2 ± 9.3 | 5.6 ± 0.6 | 7.9 ± 0.7 | 14.0 ± 4.3 | 3.9 ± 1.1 |  |  |  |  |  | 
3 | N[C@@H](Cc1ccccc1)C(=O)N[C@@H](Cc1ccc(O)cc1)C(=O)OC[C@H]1O[C@@H](n2cc(F)c(=O)[nH]c2=O)C[C@@H]1O [5'-O-L-phenylalanyl-L-tyrosyl-floxuridine] | Floxuridine and amino acid mono ester prodrugs of floxuridine were observed |  | Amino acid monoester prodrugs of floxuridine and their parent drug were observed | 233.9 ± 6.6 |  | 47.2 ± 3.6 | 42.2 ± 1.3 | 105.7 ± 12.8 | 54.7 ± 2.8 | 42.8 ± 0.0 | 3.9 | significant degradation | significant degradation | significantly prolonged | not improved | 
4 | N[C@@H](Cc1ccccc1)C(=O)OC[C@H]1O[C@@H](n2cc(F)c(=O)[nH]c2=O)C[C@@H]1O [5'-O-L-phenylalanylfloxuridine] | only floxuridine was detected |  |  | 187.0 ± 19.0 | immediately inhibited the growth of tumor cells | 28.9 ± 10.7 | 15.3 ± 0.6 | 60.6 ± 4.6 | 48.7 ± 0.37 | 3.0 ± 0.1 |  |  |  |  |  | 7.3
5 | CC(C)[C@H](N)C(=O)N[C@@H](Cc1ccccc1)C(=O)OC[C@H]1O[C@@H](n2cc(F)c(=O)[nH]c2=O)C[C@@H]1O [5'-O-L-valyl-L-phenylalanyl-floxuridine] | Floxuridine and amino acid mono ester prodrugs of floxuridine were observed |  | Amino acid monoester prodrugs of floxuridine and their parent drug were observed | 104.7 ± 7.0 |  | 67.7 ± 15.1 | 46.1 ± 1.9 | 76.4 ± 6.1 | 93.6 ± 29.3 | 56.2 ± 12.8 |  | not a good substrate for cathepsins | not a good substrate for cathepsins |  |  | 
6 | CC[C@H](C)[C@H](N)C(=O)NCC(=O)OC[C@H]1O[C@@H](n2cc(F)c(=O)[nH]c2=O)C[C@@H]1O [5′-O-L-isoleucyl-L-glycylfloxuridine] | only floxuridine was detected |  |  |  |  |  |  |  |  |  |  |  |  |  |  | 
